In patent US4346087A, “Antibacterial surface active agent containing azaalkenelactam” (priority 1979, dated 1982):
Converted amounts (≈) assume the structure as drawn. Like-named read-outs stand apart in the source and are kept apart here.

What was measured:
Format in all cases: cell-based
Escherichia coli NIHJ = assay: MIC against Escherichia coli NIHJ
Source text: (§1) Below are described the antibacterial activities of the compounds in the compositions according to this invention.
(§2) The testing method complied with the standard method of Japan Sociaty of Chemotherapy.

[1] = test system: Desulfovibrio desulfuricans IFO 13699; assay: MIC against Desulfovibrio desulfuricans
Source text: as §1, §2

[2] = test system: Staphylococcus aureus FDA 209P; assay: MIC against Staphylococcus aureus FDA 209P
Source text: as §1, §2

[3] = Staphylococcus aureus, FDA209P, 24 h
[4] = Desulfovibrio desulfuricans, IFO13699, 24 h
[5] = Escherichia coli, Table 2, derivatives having a carboxylate radical, heart infusion agar, 37° C., 24 hours, read-out: MIC
[6] = Escherichia coli, Table 1, azaalkenelactams, heart infusion agar, 37° C., 24 hours, read-out: MIC
[7] = Table 2, derivatives having a carboxylate radical, heart infusion agar, 37° C., 24 hours
[8] = Table 1, azaalkenelactams, heart infusion agar, 37° C., 24 hours

Row | Molecule | MIC (Escherichia coli NIHJ; Escherichia coli, 24 h) [mg/L] | MIC [2, 3] [mg/L] | MIC [1, 4] [mg/L] | other results
1 | CCCCCCCCCCCCC(O)CN1CCCN=C(C)CC1=O (stereo not drawn) [Example 27, 1-(2-hydroxy)tetradecyl-4-methyl-3,6,7,8-tetrahydro-1,5-diazocin-2-one] | 25 (≈ 70.9 µM) | 12.5 (≈ 35.5 µM) | – | MIC ([1]; Desulfovibrio desulfuricans, IFO13699, Table 1, azaalkenelactams, heart infusion agar, 37° C., 24 hours, read-out: MIC): 6.25 mg/L (≈ 17.7 µM)
2 | CCCCCCCCCCCCCCC(O)CNCCN1CC[N+](CC(=O)[O-])=CCC(C)C1=O (stereo not drawn) [4-(2-hydroxyhexadecyl)aminoethyl-6-methyl-4-aza-1-azoniacyclooct-8-en-5-one-1-acetate] | 100 (≈ 208 µM) | 25 (≈ 51.9 µM) | 25 (≈ 51.9 µM) | –
3 | CCCCCCCCOCCCN1CC[N+](CC(=O)[O-])=C(C)CC1=O [4-octoxypropyl-7-methyl-1-azonia-4-azacyclohept-7-en-5-one-1-acetate] | – | 50 (≈ 141 µM) | 50 (≈ 141 µM) | MIC (Escherichia coli NIHJ; [5]): 1600 mg/L (≈ 4510 µM)
4 | 1-(2-hydroxyhexadecyl)aminoethyl-3-methyl-1-aza-5-azoniacyclooct-4-en-2-one-5-acetate | – | – | – | MIC (Escherichia coli NIHJ): 100 mg/L; MIC [1]: 6.25 mg/L; MIC [2]: 12.5 mg/L
5 | CCCCCCCCCCCCN1CCCN=C(C)CC1=O [Example 3, 1-dodecyl-4-methyl-3,6,7,8-tetrahydro-1,5-diazocin-2-one] | – | 50 (≈ 162 µM) | 6.25 (≈ 20.3 µM) | MIC (Escherichia coli NIHJ; [6]): 1600 mg/L (≈ 5190 µM)
6 | CCCCCCCCCc1ccc(OCC(O)CNCCNCCNCCN2CC[N+](CC(=O)[O-])=CCC(C)C2=O)cc1 (stereo not drawn) [4-nonylphenoxy(2-hydroxy)propylaminoethylaminoethylaminoethyl-6-methyl-4-aza-1-azoniacyclooct-8-en-5-one-1-acetate] | 400 (≈ 662 µM) | 200 (≈ 331 µM) | 50 (≈ 82.8 µM) | –
7 | CCCCCCCCCCC(O)CN1CC[N+](CC(=O)[O-])=C(C)CC1=O (stereo not drawn) [4-(2-hydroxy)dodecyl-7-methyl-1-azonia-4-azacyclohept-7-en-5-one-1-acetate] | 200 (≈ 543 µM) | 100 (≈ 271 µM) | 6.25 (≈ 17 µM) | –
8 | CCCCCCCCCCCCCCCCCCCCCC(=O)OCCN1CCN=CCCC1=O [Example 57, 4-behenoyloxyethyl-2,3,6,7-tetrahydro-1,4-diazocin-5-one] | 100 (≈ 203 µM) | 100 (≈ 203 µM) | 12.5 (≈ 25.4 µM) | –
9 | CCCCCCCCOCCCN1CCN=C(C)CC1=O [Example 8, 4-octoxypropyl-7-methyl-3,6-dihydro-2H-1,4-diazepin-5-one] | – | 50 (≈ 169 µM) | 50 (≈ 169 µM) | MIC (Escherichia coli NIHJ; [6]): 800 mg/L (≈ 2700 µM)
10 | CCCCCCCCCCCC(=O)OCCN1CCC[N+](CC(=O)[O-])=C(C)CC1=O [1-lauroyloxyethyl-4-methyl-1-aza-5-azoniacyclooct-4-en-2-one-5-acetate] | – | 400 (≈ 942 µM) | 25 (≈ 58.9 µM) | MIC (Escherichia coli NIHJ; [5]): 3200 mg/L (≈ 7540 µM)
11 | CCCCCCC(O)CC=CCCCCCCCC(=O)OC(C)CN1CCC[N+](CC(=O)[O-])=C(C)CC1=O (stereo not drawn) | – | 50 (≈ 93.2 µM) | 25 (≈ 46.6 µM) | MIC (Escherichia coli NIHJ; [5]): 1600 mg/L (≈ 2980 µM)
12 | CCCCCCCCCCCCNCCNCCN1CC[N+](CC(=O)[O-])=C(C)CC1=O [4-dodecylaminoethylaminoethyl-1-azonia-4-azacyclohept-7-en-5-one-1-acetate] | 100 (≈ 228 µM) | 12.5 (≈ 28.5 µM) | 6.25 (≈ 14.2 µM) | –
13 | CCCCCCCCCCCCOCC(O)CN1CCCN=C(C)CC1=O (stereo not drawn) [Example 33, 1-docoxy(2-hydroxy)propyl-4-methyl-3,6,7,8-tetrahydro-1,5-diazocin-2-one] | 400 (≈ 1050 µM) | 25 (≈ 65.3 µM) | 25 (≈ 65.3 µM) | –
14 | 4-behenoyloxypropyl-6-methyl-2,3,6,7-tetrahydro-1,4-diazocin-5-one [Example 68] | – | – | – | MIC (Escherichia coli NIHJ): 200 mg/L; MIC [1]: 25 mg/L; MIC [2]: 100 mg/L
15 | CCCCCCCCC=CCCCCCCCCN1CCN=CCCC1=O [Example 55, 4-(9-octadecenyl)-2,3,6,7-tetrahydro-1,4-diazocin-5-one] | 200 (≈ 531 µM) | 100 (≈ 266 µM) | 50 (≈ 133 µM) | –
16 | CCCCCCCCCCCCCCC(O)CNCCN1CCC[N+](CC(=O)[O-])=CC(C)(C)C1=O (stereo not drawn) [1-(2-hydroxyhexadecyl)aminoethyl-3,3-dimethyl-1-aza-5-azoniacyclooct-4-en-2-one-5-acetate] | 100 (≈ 202 µM) | 12.5 (≈ 25.2 µM) | 12.5 (≈ 25.2 µM) | –
17 | CCCCCCCCCCCCCCNCCN1CCC[N+](C(C)C(=O)[O-])=CC(C)C1=O (stereo not drawn) [1-tetradecylaminoethyl-3-methyl-1-aza-5-azoniacyclooct-4-en-2-one-5-propionate] | 100 (≈ 221 µM) | 6.25 (≈ 13.8 µM) | 6.25 (≈ 13.8 µM) | –
18 | 4-behenoyloxypropyl-6-methyl-4aza-1-azoniacyclooct-8-en-5-one-1-acetate | – | – | – | MIC (Escherichia coli NIHJ; [7]): 800 mg/L; MIC [1]: 25 mg/L; MIC [2]: 200 mg/L
19 | 1-coconutalkyl-4-methyl-1-aza-5-azoniacyclooct-4-en-2-one-5-acetate | – | – | – | MIC (Escherichia coli NIHJ; [7]): 3200 mg/L; MIC [1]: 12.5 mg/L; MIC [2]: 200 mg/L

Row | Molecule | MIC (Escherichia coli NIHJ; Escherichia coli, 24 h) [mg/L] | MIC [2, 3] [mg/L] | MIC [1, 4] [mg/L] | other results
20 | CCCCCCCCCCCCNCCNCCNCCCN1CCCN=C(C)CC1=O [Example 38, 1-dodecylaminoethylaminoethylaminopropyl-4-methyl-3,6,7,8-tetrahydro-1,5-diazocin-2-one] | 50 (≈ 111 µM) | 12.5 (≈ 27.7 µM) | 25 (≈ 55.3 µM) | –
21 | CCCCCCCCCCCCCCCCCCCCCC(=O)OCCCN1CCCN=C(C)CC1=O [Example 25, 1-behenoyloxypropyl-4-methyl-3,6,7,8-tetrahydro-1,5-diazocin-2-one] | – | – | – | MIC (Escherichia coli NIHJ; [8]): 1600 mg/L (≈ 3070 µM); MIC [1]: 50 mg/L (≈ 96 µM); MIC [2]: 200 mg/L (≈ 384 µM)
22 | CCCCCCCCCCC(O)CN1CCCN=CC(C)C1=O (stereo not drawn) [Example 45, 1-(2-hydroxy)dodecyl-3-methyl-3,6,7,8-tetrahydro-1,5-diazocin-2-one] | – | – | – | MIC (Escherichia coli NIHJ; [8]): 800 mg/L (≈ 2470 µM); MIC [1, 8]: 50 mg/L (≈ 154 µM); MIC [2, 8]: 100 mg/L (≈ 308 µM)
23 | 1-nonylphenylpoly(2 moles)oxyethyleneoxyethyl-3,3-dimethyl-1-aza-5-azoniacyclooct-4-en-2-one-5-acetate | – | – | – | MIC (Escherichia coli NIHJ): 400 mg/L; MIC [1]: 50 mg/L; MIC [2]: 100 mg/L
24 | CCCCCCCCCc1ccc(OCC(O)CNCCNCCNCCN2CC[N+](CC(=O)[O-])=C(C)CC2=O)cc1 (stereo not drawn) [4-nonylphenoxy(2-hydroxy)propylaminoethylaminoethylaminoethyl-7-methyl-1-azonia-4-azacyclohept-7-en-5-one-1-acetate] | – | 100 (≈ 170 µM) | 50 (≈ 84.8 µM) | MIC (Escherichia coli NIHJ; [5]): 800 mg/L (≈ 1360 µM)
25 | 1-hydroxyethyl-2-undecylimidazolineumbetaine [reference compound] | – | – | – | MIC (Escherichia coli NIHJ; [7]): ≥ 10000 mg/L; MIC [1]: 400 mg/L; MIC [2, 7]: 3600 mg/L
26 | 1-behenoyloxypropyl-4-methyl-1-aza-5-azoniacyclooct-4-en-2-one-5-acetate | – | – | – | MIC (Escherichia coli NIHJ; [7]): 3200 mg/L; MIC [1]: 50 mg/L; MIC [2]: 100 mg/L
27 | CC1=[N+](CC(=O)[O-])CCN(CC(C)OCC(C)OCC(C)OCc2ccc(C)cc2)C(=O)C1 (stereo not drawn) [4-methylbenzylpoly(2 moles)oxypropyleneoxypropyl-7-methyl-1-azonia-4-azacyclohept-7-en-5-one-1-acetate] | 400 (≈ 865 µM) | 50 (≈ 108 µM) | 50 (≈ 108 µM) | –
28 | CCCCCCCC/C=C\CCCCCCCC(=O)OCCN1CCN=C(C)CC1=O [Example 13, 4-oleoyloxyethyl-7-methyl-3,6-dihydro-2H-1,4-diazepin-5-one] | – | 100 (≈ 230 µM) | 12.5 (≈ 28.8 µM) | MIC (Escherichia coli NIHJ; [6]): 1600 mg/L (≈ 3680 µM)
29 | CCCCCCCCCCCCN1CC[N+](CC(=O)[O-])=C(C)CC1=O [4-dodecyl-7-methyl-1-azonia-4-azacyclohept-7-en-5-on-1-acetate] | – | 50 (≈ 142 µM) | 12.5 (≈ 35.5 µM) | MIC (Escherichia coli NIHJ; [5]): 3200 mg/L (≈ 9080 µM)
30 | 4-methylbenzylpoly(2 moles)oxypropyleneoxypropyl-6-methyl-2,3,6,7-tetrahydro-1,4-diazocin-5-one [Example 67] | – | – | – | MIC (Escherichia coli NIHJ): 400 mg/L; MIC [1]: 50 mg/L; MIC [2]: 200 mg/L
31 | CCCCCCCCCCCCCCCCN1CC[N+](CC(=O)[O-])=C(C)CC1=O [4-hexadecyl-7-methyl-1-azonia-4-azacyclohept-7-en-5-one-1-acetate] | – | 100 (≈ 245 µM) | 12.5 (≈ 30.6 µM) | MIC (Escherichia coli NIHJ; [5]): 3200 mg/L (≈ 7830 µM)
32 | CCCCCCCC/C=C\CCCCCCCCNCCCNC(=O)CCCCCCC/C=C\CCCCCCCC [Oleylaminopropyl oleamide, oleylaminopropyloleamide, reference compound] | – | – | 100 (≈ 170 µM) | MIC (Escherichia coli NIHJ; [6]): ≥ 10000 mg/L; MIC ([2]; Staphylococcus aureus, FDA209P, Table 1, azaalkenelactams, heart infusion agar, 37° C., 24 hours, read-out: MIC): ≥ 10000 mg/L
33 | CCCCCCC(O)CC=CCCCCCCCC(=O)OC(C)CN1CCCN=C(C)CC1=O (stereo not drawn) [Example 21] | – | 50 (≈ 104 µM) | 25 (≈ 52.2 µM) | MIC (Escherichia coli NIHJ; [6]): 800 mg/L (≈ 1670 µM)
34 | CCCCCCCCCCCCN1CCC[N+](CC(=O)[O-])=C(C)CC1=O [1-dodecyl-4-methyl-1-aza-5-azoniacyclooct-4-en-2-one-5-acetate] | – | 100 (≈ 273 µM) | 12.5 (≈ 34.1 µM) | MIC (Escherichia coli NIHJ; [5]): 3200 mg/L (≈ 8730 µM)
35 | CCCCCCCCCCCCCCC(O)CNCCN1CC[N+](CC(=O)[O-])=CCCC1=O (stereo not drawn) [4-(2-hydroxyhexadecyl)aminoethyl-4-aza-1-azoniacyclooct-8-en-5-one-1-acetate] | 100 (≈ 214 µM) | 12.5 (≈ 26.7 µM) | 6.25 (≈ 13.4 µM) | –
36 | CCCCCCCCCCCCCCC(O)CNCCN1CC[N+](CC(=O)[O-])=C(C)CC1=O (stereo not drawn) [4-(2-hydroxyhexadecyl)aminoethyl-7-methyl-1-azonia-4-azacyclohept-7-en-5-one-1-acetate] | 50 (≈ 107 µM) | 25 (≈ 53.5 µM) | – | MIC ([1]; Desulfovibrio desulfuricans, IFO13699, Table 2, derivatives having a carboxylate radical, heart infusion agar, 37° C., 24 hours, read-out: MIC): 3.12 mg/L (≈ 6.67 µM)
37 | CCCCCCCCCCC(O)CN1CCN=C(C)CC1=O (stereo not drawn) [Example 26, 4-(2-hydroxy)dodecyl-7-methyl-3,6-dihydro-2H-1,4-diazepin-5-one] | 50 (≈ 161 µM) | 50 (≈ 161 µM) | 12.5 (≈ 40.3 µM) | –
38 | CCCCCCCC/C=C\CCCCCCCC(=O)NCCN1CCN=C(C)CC1=O [Example 10, 4-oleamidoethyl-7-methyl-3,6-dihydro-2H-1,4-diazepin-5-one] | – | 50 (≈ 115 µM) | 6.25 (≈ 14.4 µM) | MIC (Escherichia coli NIHJ; [6]): 1600 mg/L (≈ 3690 µM)
